# What was measured:
# CXCR4 mRNA = assay: CXCR4 RNA expression in ARPE-19 cells by whole human genome array hybridization; type: cell-based; settings: for expression of intact intracellular CXCR4 RNA: cells uninduced with t-BH, compared to cells untreated with siRNA or given control siRNA, FIG. 3
# Protocol: To isolate RNA from cells, 1 ml Qiazol® (a phenol/guanidinium isothiocyanate-based RNAse inhibitory lysis buffer sold by Qiagen, Inc.) was added to the ARPE-19 cells and the lysates then scraped into 2 ml tubes. 200 μl of chloroform per ml of Qiazol® was then added, the tubes mixed and centrifuged at 12,000×g for 15 minutes at 4° C. The aqueous phase was removed and applied to an RNeasy® mini column (Qiagen), washed and the column eluted with water. Five micrograms of the eluate were used for subsequent RT-PCR reactions. RT-PCR reactions were carried out using the Stratascript® First Strand Synthesis System (Stratagene). The RNA was denatured at 65° C. for 5 minutes, cooled at RT for 10 minutes then incubated at 42° C. for 60 minutes with reverse transcriptase.
# A whole human genome DNA oligonucleotide array (Agilent Technnologies, G4112A array) was used to hybridize against RNA samples prepared from ARPE-19 cells treated with t-BH. This 44K slide format contains a collection of 60-mer oligonucleotides with sequences representing over 41 K human genes and transcripts.
# RNA labeling was performed using the Low RNA Input Fluorescent Linear Amplification kit (LIK®) from Agilent Technologies (#5184-3523) following the manufacturer's recommendations. Briefly, 200 ng of total RNA from the ARPE-19 cells isolated as described in Example 2 were reverse transcribed in a 20 μL volume using with 1 μL Moloney Murine Leukemia Virus reverse transcriptase (MMLV-RT) and 1.2 μL of T7 promoter primer in 1× First Strand Buffer at 40° C. for 2 hours. From the double-stranded DNA preparation, transcription and direct labeling were prepared in 80 μL at 40° C. for 2 hours using 0.8 μL of T7 RNA polymerase, 0.6 μL inorganic pyrrophosphatase, 2.4 μL of each Cy-dye-CTP at 10 mM (PerkinElmer/NEN Life Sciences Cyanine-3-CTP #NEL580 and Cyanine-5-CTP #NEL581) in 4% PEG solution and 1× Transcription buffer. Cyanine dyes are highly sensitive fluorescent dyes.
# Amplified and labeled cRNA was purified on Rneasy® mini columns (Qiagen, Inc.) according to manufacturer's protocol. cRNA was quantified by absorbance at 260 nm, 550 nm and 650 nm. Once labeling is complete, both Cy3 and Cy5 RNA samples are combined and hybridized to the microarray using the Agilent In Situ Hybridization kit (#5184-3568) following Agilent's recommendations.
# Briefly 750 ng of cyanine 3-labeled linearly amplified cRNA and 750 ng of cyanine 5-labeled linearly amplified cRNA are combined to 1× control targets, 0.5× fragmentation buffer. This 2× target solution is denaturated at 60° C. for 30 minutes and 1× hybridization buffer in a 500 μL final volume is added to terminate the fragmentation reaction.
# The target solution is then dispensed onto the 44K microarray. Incubation time was 17 hours at 60° C. in a hybridization oven with rotation at 4 rpm (Agilent Technologies #G2545A). Washes were performed for 5 minutes in 6×SSPE, 0.005% N-lauroyl sarcosine at room temperature, then for 5 minutes in 0.06×SSPE, 0.005% N-lauroyl sarcosine at room temperature, and finally for 30 seconds in Agilent Stabilization and Drying Solution®. The dried slides were scanned using a microarray scanner.
# Total RNA was isolated from the cells (uninduced with t-BH) and the amount of CXCR4 RNA determined by gene array hybridization. The amount of CXCR4 in the naïve cells are standardized as “100%”.
# ARPE-19 cells = assay: Oxidative stress/cell viability (WST) assay in ARPE-19 cells exposed to t-BH; type: cell-based
# Protocol: ARPE 19 cells (American Type Tissue Collection (ATTC) Number CRL2302) were plated at a cell density of 6×10^4 cells per 10 cm tissue culture dish, in Delbecco's Modified Eagle's Medium (DMEM) F12 containing 10% fetal bovine serum (FBS) and 1% antibiotic/antimycotic solution (10,000 units of penicillin G (sodium salt), 10,000 μg/ml of streptomycin sulfate, and 25 μg/ml of amphotericin B in 0.85% saline) incubated at 37° C. overnight.
# These oligonucleotides or control oligonucleotides (Stealth RNAi negative control Med GC (Invitrogen, Inc.)) were added in 1.5 ml of OptiMem® media (Gibco BRL) to a final concentration of 25 nM. In a separate equal volume of OptiMem® media, 15 μl of lipofectamine reagent (Lipofectamine® 2000, Invitrogen, Inc.) was similarly added to equal volume of OptiMem® media and incubated at room temperature for 5 minutes.
# Both solutions were then mixed together and further incubated for 20 minutes at room temperature. The cells were washed once with OptiMem® media, the total volume of the mixture was brought up to 10 ml with OptiMem® media (Gibco BRL) and then added to the cells. Cells were permitted to incubate overnight at 37° C. 24 hours following transfection, the transfection mixture was removed and 10 ml of fresh DMEM F12 media added to the cells. […]
# Cell viability was measured using the WST assay (Chemicon International, Inc.) according to the manufacturer's instructions. […] Thus, the formazan dye produced by viable cells can be quantified by a multiwell spectrophotometer (microplate reader) by measuring the absorbance of the dye solution at 440 nm.
# In this case, 10 μl of WST-1 reagent was added to each well after 24 hours. The optimum assay development time was determined to be 1.5 hours. Plates were then read in a Spectramax M2 Platereader® at 450 nm. […]
# [1] = test system: exudative age related macular degeneration; assay: Treatment of a patient with exudative age related macular degeneration; type: in vivo, human
# Protocol: A patient suffering from exudative age related macular degeneration in the right eye is given a subretinal injection of a biodegradable implant containing 1 μg total of equimolar amounts of oligonucleotide pair 4 (SEQ ID NO: 36 and SEQ ID NO: 37) in a volume of 100 μl. The eye is monitored weekly for 16 weeks.
# A patient is diagnosed with exudative age-related macular degeneration.
# The patient is given an subconjunctival injection of a solution containing 10 mg of 1,1′-[1,4,phenylene-bis(methylene)]-bis-1,4,8,11-tetraazacyclotetradecane (AMD3100), see Bridger et al., US2004/0209921, incorporated by reference herein) in each eye once every two weeks for 6 months. The patient is monitored bimonthly and visual acuity tested.
# [2] = Example 8, subconjunctival 10 mg each eye every two weeks for 6 months
compound,measurement,setting,value
"Pair 1: anti-CXCR4 double-stranded siRNA, SEQ ID NO: 10 and SEQ ID NO: 11 (chain 1 AACAGUGGAAGAAAGCUAGGGGCUC; chain 2 GAGGCCCUAGCUUUCUUCCACUGUU; listed as RNA, chemistry not given here)",expression of intact intracellular CXCR4 RNA,CXCR4 mRNA,reduce the expression of intact intracellular CXCR4 RNA
same,inhibition of cell death induced by oxidative stress (WST cell viability),"ARPE-19 cells; ARPE-19 cells, 300 uM t-BH for 6 hours, siRNA at 10 nM or 25 nM, FIG. 2",inhibits the cell death induced by oxidative stress (exposure to 300 uM t-BH) in a dose-dependent fashion
"c1cc(CN2CCCNCCNCCCNCC2)ccc1CN1CCCNCCNCCCNCC1 [AMD3100, 1,1′-[1,4,phenylene-bis(methylene)]-bis-1,4,8,11-tetraazacyclotetradecane]",fluorescein angiography: leakage of blood into retinal tissues,"[1]; Example 8, end of six-month treatment",no detectable leakage of blood into retinal tissues
same,visibly apparent extent of retinal degeneration,"[1]; Example 8, end of six-month treatment versus beginning of study",no increase in the visibly apparent extent of retinal degeneration
same,"increase in visual acuity, left eye",[1]; [2],one
same,"increase in visual acuity, right eye",[1]; [2],two
"Pair 2: anti-CXCR4 siRNA, SEQ ID NO: 12 and SEQ ID NO: 13 (chain 1 AACAGUGGAAGAAAGCUAGGGCCUC; chain 2 GAGGCCCUAGCUUUCUUCCACUGUU; listed as RNA, chemistry not given here)",expression of intact intracellular CXCR4 RNA,CXCR4 mRNA,reduce the expression of intact intracellular CXCR4 RNA
"CC(C)(C)OO [t-BH, tertiary-butylhydroperoxide]",expression of CXCR4 RNA over baseline,"CXCR4 mRNA; ARPE-19 cells, immediately after six hours' incubation with t-BH",30 fold
same,increase in expression of CXCR4 RNA over baseline,"CXCR4 mRNA; ARPE-19 cells, immediately after three hours' exposure to t-BH, untreated cells as baseline",20 fold
same,reduction in CXCR4 expression after recovery,"CXCR4 mRNA; t-BH for three hours, then further three hours in t-BH-free medium",almost no reduction in CXCR4 expression
same,decrease in CXCR4 RNA after recovery,"CXCR4 mRNA; t-BH for three hours, then further twenty four hours in t-BH-free medium, versus levels immediately following exposure",approximately 35%
same,cells surviving for at least 24 hours,"ARPE-19 cells; ARPE-19 cells exposed to t-BH for 3 hours, then non t-BH-containing media",approximately 70%
same,cell death,ARPE-19 cells; ARPE-19 cells exposed to t-BH for 6 hours,cell death by 24 hours
"Pair 3: anti-CXCR4 siRNA, SEQ ID NO: 14 and SEQ ID NO: 15 (chain 1 CUUGGAGUGUGACAGCUUGGAGAUG; chain 2 CAUCUCCAAGCUGUCACACUCCAAG; listed as RNA, chemistry not given here)",expression of intact intracellular CXCR4 RNA,CXCR4 mRNA,reduce the expression of intact intracellular CXCR4 RNA
"Pair 4: anti CXCR4 siRNA, SEQ ID NO: 36 and SEQ ID NO: 37 (chain 1 CCCACCAUCUACUCCAUCAUCUUCU; chain 2 AGAAGAUGAUGGAGUAGAUGGUGGG; listed as RNA, chemistry not given here)",extent of macular degeneration,"[1]; Example 6, end of the 16 week period",no increase in the extent of macular degeneration is observed
same,improvement in visual acuity,"[1]; Example 6, right eye, subretinal biodegradable implant, 1 μg total, by week 3, maintained for 16 weeks",two
